Assay results taken from patent US20230019491A1, “PYRIMIDINE TBK/IKKe INHIBITOR COMPOUNDS AND USES THEREOF” (Merck Patent GmbH, priority 2017, published 2023).

Experiments:
TBK1 = biological target: T1, TBK1 (Homo sapiens, UniProt Q9UHD2); assay: TBK biochemical assay; details: 10 point 1:4 dose response, 30 uM top concentration, 90 min at 25° C., LabChip EZ Reader II; read-out: TBK1_IC50
T1 sequence (Q9UHD2 1-729): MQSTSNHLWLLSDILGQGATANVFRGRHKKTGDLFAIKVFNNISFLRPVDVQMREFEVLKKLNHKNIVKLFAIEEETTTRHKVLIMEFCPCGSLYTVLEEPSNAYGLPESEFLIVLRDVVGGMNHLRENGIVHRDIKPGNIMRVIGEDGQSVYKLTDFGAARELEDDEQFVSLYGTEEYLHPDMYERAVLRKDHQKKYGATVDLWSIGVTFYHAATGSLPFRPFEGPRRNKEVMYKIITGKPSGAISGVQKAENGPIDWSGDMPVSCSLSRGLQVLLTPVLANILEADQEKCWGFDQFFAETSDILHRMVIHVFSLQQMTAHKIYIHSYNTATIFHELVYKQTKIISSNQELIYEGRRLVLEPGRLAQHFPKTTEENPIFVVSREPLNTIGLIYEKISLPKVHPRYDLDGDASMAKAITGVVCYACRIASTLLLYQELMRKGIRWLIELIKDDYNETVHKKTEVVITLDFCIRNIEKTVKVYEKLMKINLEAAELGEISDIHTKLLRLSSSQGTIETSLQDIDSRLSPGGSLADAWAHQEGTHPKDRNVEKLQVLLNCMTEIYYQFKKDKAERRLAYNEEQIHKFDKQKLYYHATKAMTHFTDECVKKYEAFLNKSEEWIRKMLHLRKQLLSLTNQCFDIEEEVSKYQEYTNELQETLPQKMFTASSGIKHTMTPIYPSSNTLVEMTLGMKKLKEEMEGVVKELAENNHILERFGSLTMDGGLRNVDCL
Method in brief: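 Read-out was a Caliper LabChip mobility-shift assay, run after a 90-min, 25 °C reaction of TBK1 with substrate and compounds, quenched with stop buffer. Control wells received staurosporine at 10 uM final.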

IKKε = biological target: T2, IKKε (Homo sapiens, UniProt Q14164); assay: IKKε biochemical assay; details: 10 point 1:4 dose response, 30 uM top concentration, 90 min at 25° C., LabChip EZ Reader II; read-out: IKKε_IC50
T2 sequence (Q14164 1-716): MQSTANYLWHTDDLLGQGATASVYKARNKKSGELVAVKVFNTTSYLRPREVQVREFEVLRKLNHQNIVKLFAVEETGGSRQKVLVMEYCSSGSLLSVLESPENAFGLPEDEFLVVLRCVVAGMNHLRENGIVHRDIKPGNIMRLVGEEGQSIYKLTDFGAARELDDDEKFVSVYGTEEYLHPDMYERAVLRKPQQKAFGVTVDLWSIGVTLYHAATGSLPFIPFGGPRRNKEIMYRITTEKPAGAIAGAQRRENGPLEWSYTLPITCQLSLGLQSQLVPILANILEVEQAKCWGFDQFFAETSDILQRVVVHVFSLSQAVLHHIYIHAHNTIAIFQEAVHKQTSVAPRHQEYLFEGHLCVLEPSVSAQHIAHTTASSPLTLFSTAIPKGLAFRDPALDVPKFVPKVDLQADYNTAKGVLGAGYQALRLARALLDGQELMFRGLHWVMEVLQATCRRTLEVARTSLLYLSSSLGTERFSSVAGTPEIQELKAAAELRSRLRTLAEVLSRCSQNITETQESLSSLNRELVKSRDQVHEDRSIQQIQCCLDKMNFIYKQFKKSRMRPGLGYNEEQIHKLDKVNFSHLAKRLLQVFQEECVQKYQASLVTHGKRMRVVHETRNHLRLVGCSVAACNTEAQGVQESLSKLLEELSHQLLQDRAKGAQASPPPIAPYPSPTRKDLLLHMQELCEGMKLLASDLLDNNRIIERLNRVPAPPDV
Method in brief: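 Mobility-shift LabChip read-out followed a 90 min, 25° C. reaction of IKKε with substrate and test compound, with DMSO held at 1% final. Reactions were ended with stop buffer. Wells with 10 uM final staurosporine defined complete inhibition, and DMSO-only wells the uninhibited level.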

COc1nc(Nc2ncc(F)c(-c3ccc(OC4CCN(C(=O)CO)CC4(F)F)c(C#N)c3)n2)ccc1N1CCN(C2COC2)CC1 (stereo not shown) [Example 290, 2-{[3,3-difluoro-1-(2-hydroxyacetyl)piperidin-4-yl]oxy}-5-[5-fluoro-2-({6-methoxy-5-[4-(oxetan-3-yl)piperazin-1-yl]pyridin-2-yl}amino)pyrimidin-4-yl]benzonitrile] showed an IC50 (TBK1) of less than 100 nM and an IC50 (IKKε) of less than 100 nM.
In the case of COc1nc(Nc2ncc(F)c(-c3ccc(OC4CCN(C(=O)C(C)O)CC4(F)F)c(C#N)c3)n2)ccc1N1CCN(C2COC2)CC1 (stereo not shown) [Example 291, 2-{[33-difluoro-1-(2-hydroxypropanoyl)piperidin-4-yl]oxy}-5-[5-fluoro-2-({6-methoxy-5-[4-(oxetan-3-yl)piperazin-1-yl]pyridin-2-yl}amino)pyrimidin-4-yl]], the IC50 (TBK1) is reported as less than 100 nM and the IC50 (IKKε) is reported as less than 100 nM.
Compound COc1nc(Nc2ncc(F)c(-c3ccc(OC4CCN(C(=O)[C@H](C)O)CC4(F)F)c(C#N)c3)n2)ccc1N1CCN(C2COC2)CC1 (stereo partly drawn) [Example 292, 2-({3,3-difluoro-1-[(2S)-2-hydroxypropanoyl]piperidin-4-yl}oxy)-5-[5-fluoro-2-({6-methoxy-5-[4-(oxetan-3-yl)piperazin-1-yl]pyridin-2-yl}amino)pyrimidin-4-yl]benzonitrile] has an IC50 (TBK1) of less than 100 nM and an IC50 (IKKε) of less than 100 nM.
For COc1nc(Nc2ncc(F)c(-c3ccc(OC4CCN(C(=O)C(C)O)CC4(F)F)c(C#N)c3)n2)ccc1C1CCN(C2COC2)CC1 (stereo not shown) [Example 294, 2-{[33-difluoro-1-(2-hydroxypropanoyl)piperidin-4-yl]oxy}-5-[5-fluoro-2-({6-methoxy-5-[1-(oxetan-3-yl)piperidin-4-yl]pyridin-2-yl}amino)pyrimidin-4-yl]benzonitrile], the IC50 (TBK1) was less than 100 nM and the IC50 (IKKε) was less than 100 nM.
CC(O)C(=O)N1CC[C@H](Oc2ccc(-c3nc(Nc4ccc(N5CCN(C6COC6)CC5)cc4)ncc3F)cc2C#N)[C@H](F)C1 (stereo partly drawn) [Example 295, 2-{[(3R,4S)-3-fluoro-1-(2-hydroxypropanoyl)piperidin-4-yl]oxy}-5-[5-fluoro-2-({4-[4-(oxetan-3-yl)piperazin-1-yl]phenyl}amino)pyrimidin-4-yl]benzonitrile] was tested, and the IC50 (TBK1) was less than 100 nM and the IC50 (IKKε) was less than 100 nM.
In the case of C[C@H](O)C(=O)N1CC[C@H](Oc2ccc(-c3nc(Nc4ccc(N5CCN(C6COC6)CC5)cc4)ncc3F)cc2C#N)[C@H](F)C1 [Example 296, 2-({3-fluoro-1-[(2S)-2-hydroxypropanoyl]piperidin-4-yl}oxy)-5-[5-fluoro-2-({4-[4-(oxetan-3-yl)piperazin-1-yl]phenyl}amino)pyrimidin-4-yl]benzonitrile], the IC50 (TBK1) is reported as less than 100 nM and the IC50 (IKKε) is reported as less than 100 nM.
With COc1nc(Nc2ncc(F)c(-c3ccc(O[C@H]4CCN(C(=O)[C@H](C)O)C[C@H]4F)c(C#N)c3)n2)ccc1N1CCN(C2COC2)CC1 [Example 298, 2-({3-fluoro-1-[(2S)-2-hydroxypropanoyl]piperidin-4-yl}oxy)-5-[5-fluoro-2-({6-methoxy-5-[4-(oxetan-3-yl)piperazin-1-yl]pyridin-2-yl}amino)pyrimidin-4-yl]benzonitrile] the IC50 (TBK1) was less than 100 nM and the IC50 (IKKε) was less than 100 nM.
CC(O)C(=O)N1CCC(Oc2ccc(-c3nc(Nc4ccc(N5CCN(C6COC6)CC5)cc4)ncc3F)cc2C#N)C(F)(F)C1 (stereo not shown) [Example 299, 2-{[3,3-difluoro-1-(2-hydroxypropanoyl)piperidin-4-yl]oxy}-5-[5-fluoro-2-({4-[4-(oxetan-3-yl)piperazin-1-yl]phenyl}amino)pyrimidin-4-yl]benzonitrile] showed an IC50 (TBK1) of less than 100 nM and an IC50 (IKKε) of less than 100 nM.
C[C@H](O)C(=O)N1CCC(Oc2ccc(-c3nc(Nc4ccc(N5CCN(C6COC6)CC5)cc4)ncc3F)cc2C#N)C(F)(F)C1 (stereo partly drawn) [Example 300, 2-({3,3-difluoro-1-[(2S)-2-hydroxypropanoyl]piperidin-4-yl}oxy)-5-[5-fluoro-2-({4-[4-(oxetan-3-yl)piperazin-1-yl]phenyl}amino)pyrimidin-4-yl]benzonitrile] was tested, and the IC50 (TBK1) was less than 100 nM and the IC50 (IKKε) was less than 100 nM.
For C[C@H](O)C(=O)N1CCC(Oc2ccc(-c3nc(Nc4ccc(C5CCN(C6COC6)CC5)cc4)ncc3F)cc2C#N)C(F)(F)C1 (stereo partly drawn) [Example 301, 2-({3,3-difluoro-1-[(2S)-2-hydroxypropanoyl]piperidin-4-yl}oxy)-5-[5-fluoro-2-({4-[1-(oxetan-3-yl)piperidin-4-yl]phenyl}amino)pyrimidin-4-yl]benzonitrile], the IC50 (TBK1) was less than 100 nM and the IC50 (IKKε) was less than 100 nM.
Work on COc1nc(Nc2nccc(-c3cc(C#N)c(OC4CCN(C(=O)[C@H](C)O)CC4(F)F)cn3)n2)ccc1N1CCN(C2COC2)CC1 (stereo partly drawn) [Example 303, 5-([33-difluoro-1-[(2S)-2-hydroxypropanoyl]piperidin-4-yl]oxy)-2-[2-([6-methoxy-5-[4-(oxetan-3-yl)piperazin-1-yl]pyridin-2-yl]amino)pyrimidin-4-yl]pyridine-4-carbonitrile] yielded an IC50 (TBK1) of 100 to 1000 nM and an IC50 (IKKε) of 1000 to 5000 nM.
With COc1nc(Nc2nccc(-c3ccc(OC4CCN(C(=O)[C@H](C)O)CC4(F)F)c(C#N)n3)n2)ccc1N1CCN(C2COC2)CC1 (stereo partly drawn) [Example 304, 3-([3,3-difluoro-1-[(2S)-2-hydroxypropanoyl]piperidin-4-yl]oxy)-6-[2-([6-methoxy-5-[4-(oxetan-3-yl)piperazin-1-yl]pyridin-2-yl]amino)pyrimidin-4-yl]pyridine-2-carbonitrile] the IC50 (TBK1) was less than 100 nM and the IC50 (IKKε) was less than 100 nM.
COc1nc(Nc2nccc(-c3cnc(OC4CCN(C(=O)[C@H](C)O)CC4(F)F)c(C#N)c3)n2)ccc1N1CCN(C2COC2)CC1 (stereo partly drawn) [Example 305, 2-([3,3-difluoro-1-[(2S)-2-hydroxypropanoyl]piperidin-4-yl]oxy)-5-[2-([6-methoxy-5-[4-(oxetan-3-yl)piperazin-1-yl]pyridin-2-yl]amino)pyrimidin-4-yl]pyridine-3-carbonitrile] gave an IC50 (TBK1) of less than 100 nM and an IC50 (IKKε) of less than 100 nM.
In the case of C[C@H](O)C(=O)N1CCC(Oc2ccc(-c3ccnc(Nc4ccc(N5CCN(C6COC6)CC5)cc4)n3)nc2C#N)C(F)(F)C1 (stereo partly drawn) [Example 306, 3-([33-difluoro-1-[(2S)-2-hydroxypropanoyl]piperidin-4-yl]oxy)-6-[2-([4-[4-(oxetan-3-yl)piperazin-1-yl]phenyl]amino)pyrimidin-4-yl]pyridine-2-carbonitrile], the IC50 (TBK1) is reported as less than 100 nM and the IC50 (IKKε) is reported as less than 100 nM.
In the case of COc1nc(Nc2nccc(-c3cc(C#N)c(OC4CCN(C(=O)[C@H](C)O)CC4(F)F)cc3C)n2)ccc1N1CCN(C2COC2)CC1 (stereo partly drawn) [Example 307, 2-([3,3-difluoro-1-[(2S)-2-hydroxypropanoyl]piperidin-4-yl]oxy)-5-[2-([6-methoxy-5-[4-(oxetan-3-yl)piperazin-1-yl]pyridin-2-yl]amino)pyrimidin-4-yl]-4-methylbenzonitrile], the IC50 (TBK1) is reported as less than 100 nM and the IC50 (IKKε) is reported as less than 100 nM.
For COc1cc(N2CCN(C3COC3)CC2)cnc1Nc1nccc(-c2ccc(OC3CCN(C(=O)[C@H](C)O)CC3(F)F)c(C#N)c2)n1 (stereo partly drawn) [Example 309, 2-([3,3-difluoro-1-[(2S)-2-hydroxypropanoyl]piperidin-4-yl]oxy)-5-[2-([3-methoxy-5-[4-(oxetan-3-yl)piperazin-1-yl]pyridin-2-yl]amino)pyrimidin-4-yl]benzonitrile], the IC50 (TBK1) was 100 to 1000 nM and the IC50 (IKKε) was 100 to 1000 nM.
Cc1cc(N2CCN(C3COC3)CC2)ccc1Nc1nccc(-c2ccc(OC3CCN(C(=O)[C@H](C)O)CC3(F)F)c(C#N)c2)n1 (stereo partly drawn) [Example 310, 2-([3,3-difluoro-1-[(2S)-2-hydroxypropanoyl]piperidin-4-yl]oxy)-5-[2-([2-methyl-4-[4-(oxetan-3-yl)piperazin-1-yl]phenyl]amino)pyrimidin-4-yl]benzonitrile] was tested, and the IC50 (TBK1) was less than 100 nM and the IC50 (IKKε) was less than 100 nM.
